# US10604524B2, “Pyrropyrimidine compounds as MNKs inhibitors” (LIFEARC, priority 2015, dated 2020)
# Legend:
# Assay in all cases: Kinase selectivity screen
# [1] = molecular target: IRAK4 (Homo sapiens, UniProt Q9NWZ3); settings: read-out: % Inhibition IRAK4
# [2] = molecular target: PTK6 (Homo sapiens, UniProt Q13882); settings: read-out: % Inhibition PTK6
# [3] = molecular target: GSK3B (Homo sapiens, UniProt P49841); settings: read-out: % Inhibition GSK3B
# [4] = molecular target: DMPK (Homo sapiens, UniProt Q09013); settings: read-out: % Inhibition DMPK
# [5] = molecular target: CAMK2B (Homo sapiens, UniProt Q13554); settings: read-out: % Inhibition CAMK2B
# [6] = molecular target: JAK2 (Homo sapiens, UniProt O60674); settings: read-out: % Inhibition JAK2
# [7] = molecular target: TBK1 (Homo sapiens, UniProt Q9UHD2); settings: read-out: % Inhibition TBK1
# [8] = molecular target: LYN (Homo sapiens, UniProt P07948); settings: read-out: % Inhibition LYN
# [9] = molecular target: RPS6KB1 (Homo sapiens, UniProt P23443); settings: read-out: % Inhibition RPS6KB1
# [10] = molecular target: FES (Homo sapiens, UniProt P07332); settings: read-out: % Inhibition FES
# [11] = molecular target: MYLK (Homo sapiens, UniProt Q15746); settings: read-out: % Inhibition MYLK
# [12] = molecular target: MAP3K7 (Homo sapiens, UniProt O43318); settings: read-out: % Inhibition MAP3K7
# [13] = molecular target: MARK2 (Homo sapiens, UniProt Q7KZI7); settings: read-out: % Inhibition MARK2
# [14] = molecular target: PRKCE (Homo sapiens, UniProt Q02156); settings: read-out: % Inhibition PRKCE
# [15] = molecular target: YES1 (Homo sapiens, UniProt P07947); settings: read-out: % Inhibition YES1
# [16] = molecular target: PDGFRB (Homo sapiens, UniProt P09619); settings: read-out: % Inhibition PDGFRB
# [17] = molecular target: CaMK1 (Homo sapiens, UniProt Q14012); settings: read-out: % Inhibition CaMK1
# [18] = molecular target: CDK7/CCNH/MNAT1 (Homo sapiens, UniProt P50613); settings: read-out: % Inhibition CDK7/CCNH/MNAT1
# [19] = molecular target: PIP5K1A (Homo sapiens, UniProt Q99755); settings: read-out: % Inhibition PIP5K1A
# [20] = molecular target: RAF1 (Homo sapiens, UniProt P04049); settings: read-out: % Inhibition RAF1
# [21] = molecular target: ALK (Homo sapiens, UniProt Q9UM73); settings: read-out: % Inhibition ALK
# [22] = molecular target: FGFR2 (Homo sapiens, UniProt P21802); settings: read-out: % Inhibition FGFR2
# [23] = molecular target: KIT (Homo sapiens, UniProt P10721); settings: read-out: % Inhibition KIT
# [24] = molecular target: EPHA5 (Homo sapiens, UniProt P54756); settings: read-out: % Inhibition EPHA5
# [25] = molecular target: JAK3 (Homo sapiens, UniProt P52333); settings: read-out: % Inhibition JAK3
# [26] = molecular target: STK11 (Homo sapiens, UniProt Q15831); settings: read-out: % Inhibition STK11
# [27] = molecular target: PRKCQ (Homo sapiens, UniProt Q04759); settings: read-out: % Inhibition PRKCQ
# [28] = molecular target: ABL1 (Homo sapiens, UniProt P00519); settings: read-out: % Inhibition ABL1
# [29] = molecular target: MST1R (Homo sapiens, UniProt Q04912); settings: read-out: % Inhibition MST1R
# [30] = molecular target: PIK3CG (Homo sapiens, UniProt P48736); settings: read-out: % Inhibition PIK3CG
# [31] = molecular target: SRPK1 (Homo sapiens, UniProt Q96SB4); settings: read-out: % Inhibition SRPK1
# [32] = molecular target: PIP5K1C (Homo sapiens, UniProt O60331); settings: read-out: % Inhibition PIP5K1C
# [33] = molecular target: FGFR3 (Homo sapiens, UniProt P22607); settings: read-out: % Inhibition FGFR3
# [34] = molecular target: DDR2 (Homo sapiens, UniProt Q16832); settings: read-out: % Inhibition DDR2
# Chain of STK11 (Q15831 whole entry, species assumed): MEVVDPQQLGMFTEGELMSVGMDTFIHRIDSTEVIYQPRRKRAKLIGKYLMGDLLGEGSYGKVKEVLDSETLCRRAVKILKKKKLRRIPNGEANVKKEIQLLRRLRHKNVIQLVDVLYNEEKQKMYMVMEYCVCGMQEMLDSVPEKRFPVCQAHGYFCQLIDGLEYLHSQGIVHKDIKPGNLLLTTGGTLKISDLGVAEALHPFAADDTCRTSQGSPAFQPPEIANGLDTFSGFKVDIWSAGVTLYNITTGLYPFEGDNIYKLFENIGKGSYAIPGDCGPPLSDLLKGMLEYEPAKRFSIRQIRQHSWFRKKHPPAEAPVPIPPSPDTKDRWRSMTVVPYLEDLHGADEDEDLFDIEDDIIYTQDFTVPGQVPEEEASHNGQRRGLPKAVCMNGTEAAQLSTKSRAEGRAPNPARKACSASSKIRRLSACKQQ
# Chain of STK11 (Q7RTN6 whole entry partner, species assumed): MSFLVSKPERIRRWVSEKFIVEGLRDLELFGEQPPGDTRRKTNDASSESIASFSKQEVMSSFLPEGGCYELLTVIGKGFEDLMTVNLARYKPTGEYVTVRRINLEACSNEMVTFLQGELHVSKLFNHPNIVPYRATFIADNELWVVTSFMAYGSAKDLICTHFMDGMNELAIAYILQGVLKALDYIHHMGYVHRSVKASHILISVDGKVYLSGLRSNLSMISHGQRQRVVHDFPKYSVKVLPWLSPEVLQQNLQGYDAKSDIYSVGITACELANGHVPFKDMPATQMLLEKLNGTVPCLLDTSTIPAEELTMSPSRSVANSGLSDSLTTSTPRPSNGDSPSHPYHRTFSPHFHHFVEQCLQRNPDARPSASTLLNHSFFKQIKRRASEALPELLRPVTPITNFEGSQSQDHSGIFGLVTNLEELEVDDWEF
# Chain of STK11 (Q9Y376 whole entry partner, species assumed): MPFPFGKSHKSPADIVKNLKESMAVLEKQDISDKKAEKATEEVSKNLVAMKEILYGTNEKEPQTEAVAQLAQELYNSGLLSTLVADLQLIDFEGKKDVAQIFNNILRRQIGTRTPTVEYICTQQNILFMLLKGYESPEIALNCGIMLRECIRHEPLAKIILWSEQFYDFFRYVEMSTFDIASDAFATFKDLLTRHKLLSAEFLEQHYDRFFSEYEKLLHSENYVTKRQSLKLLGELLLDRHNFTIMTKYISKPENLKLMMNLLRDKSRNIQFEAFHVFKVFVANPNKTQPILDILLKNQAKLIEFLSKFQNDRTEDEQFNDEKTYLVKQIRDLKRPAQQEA
# Chain of FES (P07332 whole entry, species assumed): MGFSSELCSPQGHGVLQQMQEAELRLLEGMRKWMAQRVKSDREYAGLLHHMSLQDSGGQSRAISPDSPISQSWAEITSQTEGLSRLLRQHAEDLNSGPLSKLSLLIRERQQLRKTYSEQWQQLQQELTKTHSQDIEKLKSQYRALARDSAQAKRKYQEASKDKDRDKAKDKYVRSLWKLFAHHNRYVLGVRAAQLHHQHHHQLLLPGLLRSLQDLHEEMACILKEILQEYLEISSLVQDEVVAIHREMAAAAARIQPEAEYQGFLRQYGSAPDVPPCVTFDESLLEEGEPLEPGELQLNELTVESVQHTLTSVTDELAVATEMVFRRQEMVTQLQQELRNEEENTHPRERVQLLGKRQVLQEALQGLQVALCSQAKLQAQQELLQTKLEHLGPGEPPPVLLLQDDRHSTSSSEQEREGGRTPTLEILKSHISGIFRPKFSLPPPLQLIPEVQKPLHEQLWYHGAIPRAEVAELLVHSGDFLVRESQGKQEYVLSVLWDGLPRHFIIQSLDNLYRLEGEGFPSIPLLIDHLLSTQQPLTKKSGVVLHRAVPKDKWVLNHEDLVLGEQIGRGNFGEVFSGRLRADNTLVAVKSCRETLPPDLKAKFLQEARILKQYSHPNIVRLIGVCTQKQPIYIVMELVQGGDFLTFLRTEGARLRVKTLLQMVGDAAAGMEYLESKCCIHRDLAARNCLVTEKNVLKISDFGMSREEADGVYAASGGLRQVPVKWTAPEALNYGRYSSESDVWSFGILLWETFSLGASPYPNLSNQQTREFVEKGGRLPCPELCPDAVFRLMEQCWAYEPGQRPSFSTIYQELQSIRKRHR
# Chain of ALK (Q9UM73 19-1620, species assumed): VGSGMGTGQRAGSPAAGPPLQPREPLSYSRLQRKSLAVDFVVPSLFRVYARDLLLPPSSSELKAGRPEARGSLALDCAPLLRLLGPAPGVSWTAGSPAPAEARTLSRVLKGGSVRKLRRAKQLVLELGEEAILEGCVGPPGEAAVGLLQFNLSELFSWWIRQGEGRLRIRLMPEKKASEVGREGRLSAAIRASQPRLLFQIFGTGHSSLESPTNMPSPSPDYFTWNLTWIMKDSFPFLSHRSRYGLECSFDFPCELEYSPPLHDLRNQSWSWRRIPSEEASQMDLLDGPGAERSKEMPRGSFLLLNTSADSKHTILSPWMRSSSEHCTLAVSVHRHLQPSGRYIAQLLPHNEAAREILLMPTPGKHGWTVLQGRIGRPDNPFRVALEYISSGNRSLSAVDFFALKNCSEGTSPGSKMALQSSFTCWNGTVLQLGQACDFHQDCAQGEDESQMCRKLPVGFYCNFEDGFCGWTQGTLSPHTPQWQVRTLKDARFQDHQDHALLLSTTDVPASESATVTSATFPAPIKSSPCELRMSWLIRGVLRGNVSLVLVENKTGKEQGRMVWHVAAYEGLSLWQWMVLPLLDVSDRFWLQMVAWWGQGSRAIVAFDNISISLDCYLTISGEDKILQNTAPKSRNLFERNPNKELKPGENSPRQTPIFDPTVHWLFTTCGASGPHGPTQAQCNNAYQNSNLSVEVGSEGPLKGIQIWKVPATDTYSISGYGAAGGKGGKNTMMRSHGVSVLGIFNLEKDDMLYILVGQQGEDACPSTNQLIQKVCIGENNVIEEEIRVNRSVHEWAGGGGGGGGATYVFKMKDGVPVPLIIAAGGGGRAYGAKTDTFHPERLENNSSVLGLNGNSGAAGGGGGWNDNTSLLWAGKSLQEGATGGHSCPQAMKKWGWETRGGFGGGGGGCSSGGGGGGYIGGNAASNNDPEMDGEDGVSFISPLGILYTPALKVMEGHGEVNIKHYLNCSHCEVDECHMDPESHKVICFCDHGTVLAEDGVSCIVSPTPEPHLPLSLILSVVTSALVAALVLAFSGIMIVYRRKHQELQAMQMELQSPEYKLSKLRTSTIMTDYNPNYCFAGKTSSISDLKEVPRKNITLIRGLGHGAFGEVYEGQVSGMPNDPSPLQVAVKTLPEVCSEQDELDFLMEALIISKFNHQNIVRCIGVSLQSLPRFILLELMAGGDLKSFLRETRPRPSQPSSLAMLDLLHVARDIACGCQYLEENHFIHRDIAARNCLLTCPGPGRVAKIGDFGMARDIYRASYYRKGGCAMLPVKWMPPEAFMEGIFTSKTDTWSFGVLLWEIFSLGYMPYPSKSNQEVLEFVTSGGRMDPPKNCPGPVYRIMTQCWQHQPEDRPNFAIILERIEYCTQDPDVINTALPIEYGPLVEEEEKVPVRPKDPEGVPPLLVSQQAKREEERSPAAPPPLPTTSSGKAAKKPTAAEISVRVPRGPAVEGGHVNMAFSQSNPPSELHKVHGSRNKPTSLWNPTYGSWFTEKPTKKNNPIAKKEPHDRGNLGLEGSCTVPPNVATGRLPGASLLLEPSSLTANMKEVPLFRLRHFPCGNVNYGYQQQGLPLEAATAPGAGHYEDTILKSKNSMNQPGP
# Chain of ABL1 (P00519 whole entry, species assumed): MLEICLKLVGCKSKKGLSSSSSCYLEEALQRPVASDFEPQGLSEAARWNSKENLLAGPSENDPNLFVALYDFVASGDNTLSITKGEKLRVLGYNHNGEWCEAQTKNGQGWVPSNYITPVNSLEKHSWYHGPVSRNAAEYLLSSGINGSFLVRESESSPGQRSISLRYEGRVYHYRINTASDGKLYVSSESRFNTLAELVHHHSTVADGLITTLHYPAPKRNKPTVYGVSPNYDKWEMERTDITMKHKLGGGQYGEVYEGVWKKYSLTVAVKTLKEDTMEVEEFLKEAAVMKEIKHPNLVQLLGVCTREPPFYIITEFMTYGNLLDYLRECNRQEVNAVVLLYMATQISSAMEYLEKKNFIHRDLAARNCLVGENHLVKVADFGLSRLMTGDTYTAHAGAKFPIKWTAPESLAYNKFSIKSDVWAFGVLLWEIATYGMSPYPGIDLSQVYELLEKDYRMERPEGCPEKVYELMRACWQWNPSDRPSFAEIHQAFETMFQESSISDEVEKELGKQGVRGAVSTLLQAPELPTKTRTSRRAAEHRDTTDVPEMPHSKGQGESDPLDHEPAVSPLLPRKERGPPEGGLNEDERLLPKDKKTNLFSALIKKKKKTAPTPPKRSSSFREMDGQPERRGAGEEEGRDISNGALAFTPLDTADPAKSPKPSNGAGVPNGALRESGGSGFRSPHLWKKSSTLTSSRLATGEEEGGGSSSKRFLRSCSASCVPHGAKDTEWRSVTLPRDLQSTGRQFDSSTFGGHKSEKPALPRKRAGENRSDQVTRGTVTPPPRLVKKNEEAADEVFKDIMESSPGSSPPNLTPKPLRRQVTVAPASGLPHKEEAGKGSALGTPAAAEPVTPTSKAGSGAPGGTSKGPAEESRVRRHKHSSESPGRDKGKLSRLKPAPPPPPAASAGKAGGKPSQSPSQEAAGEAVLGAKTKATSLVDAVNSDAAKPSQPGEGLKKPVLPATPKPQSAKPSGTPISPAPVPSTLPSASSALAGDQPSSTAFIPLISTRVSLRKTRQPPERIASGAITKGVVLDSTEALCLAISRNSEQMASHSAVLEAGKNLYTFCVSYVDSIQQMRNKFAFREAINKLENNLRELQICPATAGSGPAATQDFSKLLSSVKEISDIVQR
compound,measurement,setting,value
"CC(C)Oc1cc(F)ccc1Nc1ncnc2cc(C(=O)NCCCN(C)C)n(C)c12 [Example 40, N-[3-(dimethylamino)propyl]-4-{[4-fluoro-2-(propan-2-yloxy)phenyl]amino}-5-methyl-5H-pyrrolo[3,2-d]pyrimidine-6-carboxamide]",inhibition at 1 µM,[1],0%
same,inhibition at 1 µM,[2],0%
same,inhibition at 1 µM,[3],0%
same,inhibition at 1 µM,[4],0%
same,inhibition at 1 µM,[5],14%
same,inhibition at 1 µM,[6],0%
same,inhibition at 1 µM,[7],0%
same,inhibition at 1 µM,[8],11%
same,inhibition at 1 µM,[9],0%
same,inhibition at 1 µM,[10],5%
same,inhibition at 1 µM,[11],0%
same,inhibition at 1 µM,[12],5%
same,inhibition at 1 µM,[13],0%
same,inhibition at 1 µM,[14],0%
same,inhibition at 1 µM,[15],0%
same,inhibition at 1 µM,[16],5%
same,inhibition at 1 µM,[17],0%
same,inhibition at 1 µM,[18],5%
same,inhibition at 1 µM,[19],2%
same,inhibition at 1 µM,[20],0%
same,inhibition at 1 µM,[21],0%
same,inhibition at 1 µM,[22],0%
same,inhibition at 1 µM,[23],2%
same,inhibition at 1 µM,[24],0%
same,inhibition at 1 µM,[25],0%
same,inhibition at 1 µM,[26],0%
same,inhibition at 1 µM,[27],0%
same,inhibition at 1 µM,[28],0%
same,inhibition at 1 µM,[29],0%
same,inhibition at 1 µM,[30],1%
same,inhibition at 1 µM,[31],0%
same,inhibition at 1 µM,[32],6%
same,inhibition at 1 µM,[33],10%
same,inhibition at 1 µM,[34],2%
